Values of other authors in patent US9289392B2, “Extended release pharmaceutical composition of entacapone or salts thereof” (Wockhardt Ltd., priority 2008, dated 2016).

solubility in water | SMILES
slightly soluble | N[C@@H](Cc1ccc(O)c(O)c1)C(=O)O [Levodopa, (−)-L-α-amino-β-(3,4-dihydroxybenzene) propanoic acid]
slightly soluble | C[C@@](Cc1ccc(O)c(O)c1)(NN)C(=O)O [Carbidopa]
